This is an account of results in patent US20230114241A1, “METHODS OF TREATING EPILEPSY USING THE SAME” (Trevena, Inc., priority 2019, published 2023).

For assay [1], the target named is T1, human sphingosine-1-phosphate receptor 1 (S1P1) (Homo sapiens, UniProt P21453). The assay can be described thus: Inhibition of cAMP production (HTRF cAMP HiRange), S1P1 CHO-K1 cells. The following applies: for Emax: CHO-K1, efficacy normalized to maximum efficacy of fingolimod, read-out: hS1P1 CAMP SPAN; for EC50: read-out: hS1P1 CAMP pEC50 (converted). In kind it is cell-based. The gist of the method:
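CHO-K1 cells co-expressing human S1P1 (C-terminal ProLink tag) and EA-β-arrestin2, plated overnight; after 30 min compound incubation at 37 °C, intracellular cAMP measured by HTRF TR-FRET following 1 h at room temperature. Values normalized to fingolimod.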
Target sequence in this assay (P21453 whole entry): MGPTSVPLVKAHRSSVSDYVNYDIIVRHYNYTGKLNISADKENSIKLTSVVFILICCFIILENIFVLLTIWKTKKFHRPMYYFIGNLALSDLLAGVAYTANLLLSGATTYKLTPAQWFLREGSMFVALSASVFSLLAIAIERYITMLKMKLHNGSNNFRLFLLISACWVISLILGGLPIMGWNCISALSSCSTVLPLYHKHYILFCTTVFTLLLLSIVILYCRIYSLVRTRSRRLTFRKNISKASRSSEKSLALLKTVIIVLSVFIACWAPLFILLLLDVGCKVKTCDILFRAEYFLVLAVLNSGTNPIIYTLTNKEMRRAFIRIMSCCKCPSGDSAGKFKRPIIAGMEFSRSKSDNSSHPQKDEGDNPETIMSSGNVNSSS

Assay [2] deals with T1, human sphingosine-1-phosphate receptor 1 (S1P1). The assay can be described thus: β-Arrestin2 recruitment assay (PathHunter), S1P1 CHO-K1 cells. To be noted: for Emax: efficacy normalized to maximum efficacy of fingolimod, read-out: hS1P1 B-arrestin2 SPAN; for EC50: β-arrestin2 recruitment, read-out: hS1P1 B-arrestin2 pEC50 (converted). In kind it is cell-based. The gist of the method:
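CHO-K1 cells co-expressing EA-β-arrestin2 and ProLink-tagged human S1P1 plated overnight, then stimulated 60 min at 37 °C. Enzyme-fragment complementation (β-galactosidase) detected after 1 h at room temperature by luminescence; values normalized to fingolimod.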
Target sequence in this assay (P21453 whole entry): as above
Target sequence in this assay (P32121 whole entry partner): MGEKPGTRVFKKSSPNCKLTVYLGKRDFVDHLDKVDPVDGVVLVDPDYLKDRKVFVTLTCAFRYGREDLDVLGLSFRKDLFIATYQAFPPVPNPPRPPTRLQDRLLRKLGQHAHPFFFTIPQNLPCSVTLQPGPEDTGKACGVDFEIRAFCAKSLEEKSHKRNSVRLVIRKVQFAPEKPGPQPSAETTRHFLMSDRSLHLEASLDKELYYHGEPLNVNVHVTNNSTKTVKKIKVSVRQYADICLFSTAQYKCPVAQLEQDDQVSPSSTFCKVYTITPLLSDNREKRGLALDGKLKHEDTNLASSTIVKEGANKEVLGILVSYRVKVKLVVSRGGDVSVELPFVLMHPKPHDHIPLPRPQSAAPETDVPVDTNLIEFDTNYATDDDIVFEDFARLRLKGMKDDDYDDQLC

The mark [3] stands for this setting: inhibition of cAMP production, potency.
Where [4] appears, read: CHO-K1, β-arrestin2 recruitment.
Setting [5] is: inhibition of cAMP production, S1P1.

For `COc1ccccc1-c1noc(-c2ccc3[nH]ncc3c2)n1` [Compound 371, 5-(1H-indazol-5-yl)-3-(2-methoxyphenyl)-1,2,4-oxadiazole], the Emax in assay [1] (inhibition of cAMP production) and in assay [2] (setting [4]) was under 75% in each case. The EC50 in assay [1] (setting [3]) was over 0.316 µM; in assay [2] (potency), over 10 µM.

As to `Cc1cccc2oc(-c3ccc4c(c3)nnn4CC(C)C)nc12` [Compound 447, 2-(1-isobutyl-1H-benzo[d][1,2,3]triazol-5-yl)-4-methyl-benzo[d]oxazole], the values for the Emax in assay [1] and in assay [2] (CHO-K1) were over 75% and under 75%, respectively. Besides, the EC50 in assay [1] (setting [5]) is under 0.316 µM; in assay [2] (S1P1) it was under 10 µM.

Turning to `CCC1(CC)CC(=O)c2cc(-c3nc(-c4ccccc4OC)ns3)ccc2O1` [Compound 257, 2,2-diethyl-6-(3-(2-methoxyphenyl)-1,2,4-thiadiazol-5-yl)chroman-4-one], the Emax in assay [1] (inhibition of cAMP production) was over 75%; in assay [2] (setting [4]) it was under 75%. For the same compound, the EC50 in assay [1] (setting [3]) was over 0.316 µM; in assay [2] (potency) it was over 10 µM.

On to `CCC1(CC)CC(=O)c2cc(-c3nc(-c4cccnc4C)no3)ccc2O1` [Compound 564, 2,2-diethyl-6-(3-(2-methylpyridin-3-yl)-1,2,4-oxadiazol-5-yl)chroman-4-one], for which the Emax in assay [1] and in assay [2] (CHO-K1) was over 75% throughout. For the same compound, the EC50 in assay [1] (setting [5]) was under 0.316 µM; in assay [2] (S1P1), under 10 µM.

On to `CC(C)(O)Cn1nnc2cc(-c3nc(-c4ccc5nonc5c4)no3)ccc21` [Compound 590, 1-{5-[3-(2,1,3-benzoxa-diazol-5-yl)-1,2,4-oxadiazol-5-yl]-1H-1,2,3-benzotriazol-1-yl}-2-methylpropan-2-ol], for which the Emax in assay [1] and in assay [2] (CHO-K1) was under 75% in each case. In addition, the figures for the EC50 in assay [1] (setting [5]) and in assay [2] (S1P1) were over 0.316 µM and over 10 µM, respectively.

For `c1ccc(-c2noc(-c3ccc4[nH]nnc4c3)n2)cc1` [Compound 113, 5-(3-phenyl-1,2,4-oxadiazol-5-yl)-1H-1,2,3-benzotriazole], the Emax in assay [1] (inhibition of cAMP production) and in assay [2] (setting [4]) was under 75% in each case. Also, the values for the EC50 in assay [1] (setting [3]) and in assay [2] (potency) were over 0.316 µM and over 10 µM, respectively.

In the case of `COc1ccc(-c2nc(-c3ccc4c(c3)nnn4C(C)(C)CO)no2)c(C)c1` [Compound 610, 2-(5-(5-(4-methoxy-2-methylphenyl)-1,2,4-oxadiazol-3-yl)-1H-benzo[d] [1,2,3]triazol-1-yl)-2-methylpropan-1-ol], the values for the Emax in assay [1] and in assay [2] (CHO-K1) were under 75% and over 75%, respectively. The EC50 in assay [1] (setting [5]) is over 0.316 µM; in assay [2] (S1P1), over 10 µM.

As to `Cc1ccc2nc(-c3ccc4c(c3)nnn4CC(C)C)oc2c1` [Compound 448, 2-(1-isobutyl-1H-benzo[d][1,2,3]triazol-5-yl)-6-methyl-benzo[d]oxazole], the Emax in assay [1] is over 75%; in assay [2] (CHO-K1), under 75%. For the same compound, the results for the EC50 in assay [1] (setting [5]) and in assay [2] (S1P1) were over 0.316 µM and over 10 µM, respectively.

For `CC1CC(=O)c2ccc(-c3nc(-c4cccnc4)no3)cc2O1` (stereo not shown) [Compound 535, 2-methyl-7-[3-(pyridin-3-yl)-1,2,4-oxadiazol-5-yl]-3,4-dihydro-2H-1-benzopyran-4-one], the Emax in assay [1] and in assay [2] (CHO-K1) was under 75% throughout. Besides, the figures for the EC50 in assay [1] (setting [5]) and in assay [2] (S1P1) were over 0.316 µM and under 10 µM, respectively.

In the case of `C=CCn1nc2ccc(-c3nc(-c4ccccc4)no3)cc2n1` [Compound 39, 5-(3-phenyl-1,2,4-oxadiazol-5-yl)-2-(prop-2-en-1-yl)-2H-1,2,3-benzotriazole], the Emax in assay [1] (inhibition of cAMP production) and in assay [2] (setting [4]) was under 75% throughout. Besides, the EC50 in assay [1] (setting [3]) is over 0.316 µM; in assay [2] (potency), over 10 µM.

Consider `COc1ccccc1-c1noc(-c2ccc3c(c2)NC(=O)CN3)n1` [Compound 614, 7-[3-(2-methoxyphenyl)-1,2,4-oxadiazol-5-yl]-1,2,3,4-tetrahydro-quinoxalin-2-one], for which the Emax in assay [1] is over 75%; in assay [2] (CHO-K1), under 75%. Also, the figures for the EC50 in assay [1] (setting [5]) and in assay [2] (S1P1) were over 0.316 µM and over 10 µM, respectively.

In the case of `CC(C)n1ccc2cc(-c3noc(-c4ccncc4)n3)ccc21` [Compound 395, 3-(1-isopropyl-1H-indol-5-yl)-5-(pyridin-4-yl)-1,2,4-oxadiazole], the Emax in assay [1] was under 75%; in assay [2] (CHO-K1) it was over 75%. Also, the EC50 in assay [1] (setting [5]) was under 0.316 µM; in assay [2] (S1P1), under 10 µM.

For the compound `COc1ccccc1-c1noc(-c2ccc3c(c2)ncn3C(C)C)n1` [Compound 373, 5-(1-isopropyl-1H-benzo[d]imidazol-5-yl)-3-(2-methoxy-phenyl)-1,2,4-oxadiazole], the Emax in assay [1] and in assay [2] (CHO-K1) was over 75% throughout. Also, the EC50 in assay [1] (setting [5]) is over 0.316 µM; in assay [2] (S1P1) it was over 10 µM.

As for `N#Cc1cc(-c2nc(-c3ccc4c(c3)NC(=O)CC4)no2)ccc1NCC1CC1` [Compound 471, 2-((cyclopropyl-methyl)amino)-5-(3-(2-oxo-1,2,3,4-tetrahydroquinolin-7-yl)-1,2,4-oxadiazol-5-yl)benzonitrile], the Emax in assay [1] and in assay [2] (CHO-K1) was over 75% throughout. The EC50 in assay [1] (setting [5]) is under 0.316 µM; in assay [2] (S1P1), under 10 µM.

On to `N#Cc1cc(-c2nnc(-c3ccc4c(c3)ncn4CCO)o2)ccc1NCC(F)F` [Compound 578, 2-[(2,2-difluoro-ethyl)amino]-5-{5-[1-(2-hydroxyethyl)-1H-1,3-benzodiazol-5-yl]-1,3,4-oxadiazol-2-yl}benzonitrile], for which the values for the Emax in assay [1] and in assay [2] (CHO-K1) were over 75% and under 75%, respectively. In addition, the EC50 in assay [1] (setting [5]) was over 0.316 µM; in assay [2] (S1P1), over 10 µM.

Take `Brc1ccccc1-c1nc(-c2ccc3c(c2)nnn3Cc2ccccc2)no1` [Compound 52, 3-(1-benzyl-1H-benzo[d][1,2,3]triazol-5-yl)-5-(2-bromophenyl)-1,2,4-oxadiazole]: the Emax in assay [1] (inhibition of cAMP production) and in assay [2] (setting [4]) was under 75% throughout. Also, the EC50 in assay [1] (setting [3]) is over 0.316 µM; in assay [2] (potency) it was over 10 µM.

As for `Cn1cnc2ccc(-c3nnc(-c4ccc(NCC(F)(F)CO)c(C#N)c4)o3)cc21` [Compound 635, 2-[(2,2-difluoro-3-hydroxypropyl)amino]-5-[5-(1-methyl-1H-1,3-benzodiazol-6-yl)-1,3,4-oxadiazol-2-yl]benzonitrile], the Emax in assay [1] and in assay [2] (CHO-K1) was under 75% in each case. Besides, the EC50 was under 0.316 µM in assay [1] (setting [5]) and under 10 µM in assay [2] (S1P1).

Take `CCC1(CC)CC(=O)c2cc(-c3nc(-c4ccc(C(F)(F)F)nc4)no3)ccc2O1` [Compound 548, 2,2-diethyl-6-(3-(6-(trifluoromethyl)pyridin-3-yl)-1,2,4-oxadiazol-5-yl)chroman-4-one]: the Emax in assay [1] and in assay [2] (CHO-K1) was under 75% in each case. Besides, the EC50 in assay [1] (setting [5]) was over 0.316 µM; in assay [2] (S1P1), over 10 µM.

On to `Cc1ccccc1-c1noc(-c2ccc3c(c2)CCC(=O)N3C)n1` [Compound 367, 1-methyl-6-[3-(2-methyl-phenyl)-1,2,4-oxadiazol-5-yl]-1,2,3,4-tetrahydroquinolin-2-one], for which the Emax in assay [1] (inhibition of cAMP production) and in assay [2] (setting [4]) was under 75% each time. For the same compound, the EC50 is over 0.316 µM in assay [1] (setting [3]) and over 10 µM in assay [2] (potency).

With `CC(C)n1ccc2nc(-c3nc(-c4ccccc4Br)cs3)ccc21` [Compound 412, 4-(2-bromophenyl)-2-(1-isopropyl-1H-pyrrolo[3,2-b]pyridin-5-yl)thiazole], the Emax in assay [1] is over 75%; in assay [2] (CHO-K1) it was under 75%. Besides, the EC50 in assay [1] (setting [5]) is over 0.316 µM; in assay [2] (S1P1), over 10 µM.

For `Cc1ccncc1-c1noc(-c2ccc3c(c2)NC(=O)CN3)n1` [Compound 613, 7-[3-(4-methylpyridin-3-yl)-1,2,4-oxadiazol-5-yl]-1,2,3,4-tetra-hydroquinoxalin-2-one], the Emax in assay [1] and in assay [2] (CHO-K1) was under 75% in each case. Also, the results for the EC50 in assay [1] (setting [5]) and in assay [2] (S1P1) were over 0.316 µM and over 10 µM, respectively.

As to `CCC1(CC)CC(=O)c2cc(-c3nc(-c4ccc[nH]4)no3)ccc2O1` [Compound 464, 6-(3-(1H-pyrrol-2-yl)-1,2,4-oxadiazol-5-yl)-2,2-diethylchroman-4-one], the Emax in assay [1] and in assay [2] (CHO-K1) was under 75% throughout. Further, the EC50 in assay [1] (setting [5]) was under 0.316 µM; in assay [2] (S1P1), over 10 µM.

For the compound `COc1ccccc1-c1noc(-c2ccc3c(cnn3C(C)C)c2)n1` [Compound 370, 5-(1-isopropyl-1H-indazol-5-yl)-3-(2-methoxyphenyl)-1,2,4-oxadiazole], the Emax in assay [1] (inhibition of cAMP production) and in assay [2] (setting [4]) was over 75% each time. Also, the EC50 in assay [1] (setting [3]) was under 0.316 µM; in assay [2] (potency) it was under 10 µM.

Consider `Cc1cnccc1-c1noc(-c2ccc3c(c2)nnn3CC(C)(C)O)n1` [Compound 597, 2-methyl-1-{5-[3-(3-methylpyridin-4-yl)-1,2,4-oxadiazol-5-yl]-1H-1,2,3-benzotriazol-1-yl}propan-2-ol], for which the Emax in assay [1] and in assay [2] (CHO-K1) was over 75% in each case. Also, the EC50 in assay [1] (setting [5]) is under 0.316 µM; in assay [2] (S1P1) it was under 10 µM.

As to `Cc1occc1-c1noc(-c2ccc3c(c2)nnn3C(C)C)n1` [Compound 491, 5-[3-(2-methylfuran-3-yl)-1,2,4-oxadiazol-5-yl]-1-(propan-2-yl)-1H-1,2,3-benzotriazole], the Emax in assay [1] and in assay [2] (CHO-K1) was over 75% throughout. Also, the EC50 is under 0.316 µM in assay [1] (setting [5]) and under 10 µM in assay [2] (S1P1).
